According to US10988444B2, “Antimicrobial compounds” (NEWSOUTH INNOVATIONS PTY LIMITED, priority 2016, dated 2021):
Values after ≈ are worked out from the molar mass of the structure shown.

How the values were obtained:
E. coli [1] = experiment: Minimal inhibitory concentration (MIC) determination, Example 1; assay type: cell-based; conditions: 24 h, MHB, 37° C.; for MIC: Escherichia coli, read-out: Minimum inhibitory concentration (MIC) E. coli
Protocol: (§1) The antibacterial activity of the compounds was determined by the determination of minimal inhibitory concentration (MIC) by following the previously published protocol (see Nizalapur, S.; Ho, K. K.; Kimyon, Ö.; Yee, E.; Berry, T.; Manefield, M.; Cranfield, C. G.; Willcox, M.; Black, D. S.; Kumar, N. Org. Biomol. Chem. 2016, 14, 3623). The compounds to be tested were dissolved and diluted in autoclaved Millipore water. A single colony of bacteria was cultured overnight in TSB at 37° C. The resulting bacteria were collected by centrifugation and re-suspended in the same volume of MHB twice. Optical density (OD) of the resulting culture was adjusted to 0.1 at 600 nm (10^8 CFU/mL) in MHB, and the adjusted culture was further diluted to […] in MHB. Then, 100 μL of the bacterial solution was added to wells of a 96-well plate containing 100 μL of serially diluted compound. Two controls were also prepared: one containing 100 μL of MHB media and 100 μL sterile water, and the other containing 100 μL of bacterial solution and 100 μL sterile water. […] The MIC value was determined as the lowest concentration of compound that inhibited the complete growth of the bacteria (i.e. OD similar to that of the control having no bacteria). Each experiment was performed in triplicate and was repeated in three independent experiments.
(§2) The results of the MIC assay are given below in Table 1.

S. aureus [2] = experiment: as above; assay type: cell-based; conditions: MHB, 37° C., 24 h; for MIC: Staphylococcus aureus, read-out: Minimum inhibitory concentration (MIC) S. aureus
Protocol: as §1, §2

E. coli [3] = experiment: Biofilm disruption assay, established biofilms, crystal violet staining; assay type: cell-based; conditions: 250 μM, 24 h treatment
Protocol: (§3) Bacterial cultures were grown in TSB media for overnight at 37° C. with shaking at 150 r.p.m. Cultures were diluted (1:20) in YPD medium and 200 μl aliquots were dispensed to flat bottom 96-well plate wells (Sarstedt Australia). Cultures were supplemented with varying concentrations of synthetic compounds dissolved in water. For pre-established biofilm assay, cultures were grown in 96-well plate wells overnight prior to supplementation with synthetic compounds. Control cultures were supplemented with an equal amount of DMSO. Plates were sealed with self-adhesive microplate sealers (TopSeal-A, PerkinElmer) to allow air diffusion and to prevent condensation. Cultures were incubated overnight at 37° C. with shaking at 150 r.p.m. Biofilms adhered on polystyrene substratum were quantified by crystal violet staining as described previously (see Wiegand, I.; Hilpert, K.; Hancock, R. E. W. Nat. Protocols 2008, 3 (2), 163-175). All cultures were prepared in triplicates. Error bars represent the standard error of three independent experiments (n=3).
(§4) The biofilm disruption activities of the compounds were investigated using crystal violet staining according to a previously published protocol (G. A. O'Toole, J Vis Exp, 2011, (47), pii: 2437, DOI: 10.3791/2437, 2437). The ability of compounds (34-38, 51-56, 61, 62, 65 and 66) to disrupt the established biofilms of the Gram-positive bacteria S. aureus and the Gram-negative bacteria Pseudomonas aeruginosa, Serratia marcescens and E. coli, was determined at a concentration of 250 μM. In this assay, bacterial cultures were grown on a polystyrene substratum overnight prior to treatment with the compounds. In addition, the ability of these compounds to inhibit the formation of biofilms of P. aeruginosa and S. marcescens was also investigated at 250 μM, whereby the bacterial cultures were grown in the presence of test compounds.

S. marcescens [4] = experiment: Biofilm inhibition assay (inhibition of biofilm formation), crystal violet staining; assay type: cell-based; conditions: Serratia marcescens, 24 h
Protocol: as §3, with “no-established” for “pre-established”, “along” for “prior to supplementation”, “water.” for “DMSO.”
as §4

S. marcescens [5] = experiment: Biofilm disruption assay, established biofilms, crystal violet staining; assay type: cell-based, Serratia marcescens; conditions: 250 μM, 24 h treatment
Protocol: as §3, §4

S. aureus [6] = experiment: as above; assay type: cell-based; conditions: 250 μM, 24 h treatment
Protocol: as §3, §4

[7] = system: Pseudomonas aeruginosa (PAO1); experiment: as above; assay type: cell-based; conditions: 250 μM, 24 h treatment
Protocol: as §3, §4

S. aureus (SA38) = experiment: Minimal inhibitory concentration (MIC) assay, broth micro dilution, Example 3; assay type: cell-based; conditions: Staphylococcus aureus; SA38, MHB, 37° C., 18-24 hours; read-out: Minimum inhibitory concentration (MIC) S. aureus
Protocol: (§5) Compounds 95, 96, 106, 107, 109, 117 were assessed by determining their minimum inhibitory concentration (MIC) according through broth micro dilution assay using the procedure described by M. A. Wikler, Methods for dilution antimicrobial susceptibility tests for bacteria that grow aerobically: approved standard, Clinical and Laboratory Standards Institute, 2006. Briefly, bacteria were grown to mid-log phase in Muller Hinton broth (MHB) with shaking at 120 rpm and incubated at 37° C. for 18-24 hours. Following incubation, bacteria were washed three times in PBS pH 7.4 at 3500 g for 10 minutes. After washing, bacteria were diluted with fresh MHB. The turbidity of the bacterial suspensions were adjusted so that OD660 nm was 0.1, which gave 1×10^8 cfu/ml, and then further diluted to achieve 1-2×10^5 cfu/ml as a final bacterial concentration. Each compound was diluted (250-3.9 μM) through two-fold dilution. Wells in microtitre plates were loaded with 100 μl of inoculum containing 1-2×10^5 cfu/ml bacteria. Wells without any compound and containing only bacteria were used as a negative control (i.e. no inhibition of growth). Wells without bacteria but containing compound acted as another control. The microtitre plate was wrapped with paraffin to prevent evaporation and incubated with shaking at 120 rpm and 37° C. for 18-24 hours. After incubation, spectrophotometric reading was taken. The well without any bacterial growth and showing zero spectrophotometric reading regarded as mic of the compounds.

E. coli (K12) = experiment: as above; assay type: cell-based; conditions: Escherichia coli; K12, MHB, 37° C., 18-24 hours; read-out: Minimum inhibitory concentration (MIC) E. coli
Protocol: as §5

In the case of `Cl.N=C(N)NCCCNC(=O)C(=O)c1ccccc1NC(=O)c1ccc2ccccc2c1` [Compound 34, N-(2-(2-((3-Guanidinopropyl)amino)-2-oxoacetyl)phenyl)-2-naphthamide hydrochloride], the MIC (E. coli [1]) is reported as > 110 µg/mL and the MIC (S. aureus [2]) is reported as 23 µg/mL.
With `Cl.N=C(N)NCCCNC(=O)C(=O)c1cc(F)ccc1NC(=O)c1ccc2ccccc2c1` [Compound 37, N-(4-Fluoro-2-(2-((3-guanidinopropyl)amino)-2-oxoacetyl)phenyl)-2-naphthamide hydrochloride] the MIC (E. coli [1]) was 59 µg/mL, the MIC (S. aureus [2]) was 30 µg/mL and the “disruption of established biofilms of E. coli” value (E. coli [3]) was 53%. It also gave an inhibition at 250 µM (S. marcescens [4]) of 74%.
With `Cc1ccc(NC(=O)c2ccc3ccccc3c2)c(C(=O)C(=O)NCCCNC(=N)N)c1.Cl` [Compound 38, N-(2-(2-((3-Guanidinopropyl)amino)-2-oxoacetyl)-4-methylphenyl)-2-naphthamide hydrochloride] the MIC (E. coli [1]) was > 110 µg/mL and the MIC (S. aureus [2]) was 93 µg/mL.
In the case of `Cl.N=C(N)NCCCC[C@H](NC(=O)C(=O)c1ccccc1NC(=O)c1ccc2ccccc2c1)C(=O)O` [Compound 51, N^2-(2-(2-(2-naphthamido)phenyl)-2-oxoacetyl)-N^6-carbamimidoyllysine hydrochloride], the “disruption of established biofilms of S. marcescens” value (S. marcescens [5]) is reported as 48%, the MIC (E. coli [1]) is reported as 66 µg/mL and the MIC (S. aureus [2]) is reported as 53 µg/mL.
For `Cl.N=C(N)NCCCC[C@H](NC(=O)C(=O)c1cc(Br)ccc1NC(=O)c1ccc2ccccc2c1)C(=O)O` [Compound 52, N^2-(2-(2-(2-naphthamido)-5-bromophenyl)-2-oxoacetyl)-N^6-carbamimidoyllysine hydrochloride], the MIC (E. coli [1]) was 77 µg/mL, the MIC (S. aureus [2]) was 77 µg/mL and the “disruption of established biofilms of S. aureus” value (S. aureus [6]) was 42%. For the same molecule, the inhibition at 250 µM (S. marcescens [4]) was 72%.
With `Cc1ccc(NC(=O)c2ccc3ccccc3c2)c(C(=O)C(=O)N[C@@H](CCCCNC(=N)N)C(=O)O)c1.Cl` [Compound 54, N^2-(2-(2-(2-naphthamido)-5-methylphenyl)-2-oxoacetyl)-N^6-carbamimidoyllysine hydrochloride] the MIC (E. coli [1]) was 68 µg/mL, the “Minimum inhibitory concentration (MIC) E. coli” value (E. coli [1]; hydrochloride) was 69 µg/mL and the MIC (S. aureus [2]) was 54 µg/mL. For the same molecule, the “disruption of established biofilms of P. aeruginosa” value [7] was 46%.
For `CC(=O)C(CCCCNC(=N)N)NC(=O)C(=O)c1ccccc1NC(=O)c1ccc2ccccc2c1.Cl` (stereo not drawn) [Compound 55, N-(2-(2-((7-guanidino-2-oxoheptan-3-yl)amino)-2-oxoacetyl)phenyl)-2-naphthamide hydrochloride], the MIC (E. coli [1]) was 17 µg/mL and the MIC (S. aureus [2]) was > 140 µg/mL.
`CC(=O)C(CCCCNC(=N)N)NC(=O)C(=O)c1cc(Br)ccc1NC(=O)c1ccc2ccccc2c1.Cl` (stereo not drawn) [Compound 56, N-(4-bromo-2-(2-((7-guanidino-2-oxoheptan-3-yl)amino)-2-oxoacetyl)phenyl)-2-naphthamide hydrochloride] was tested, and the MIC (E. coli [1]) was 19 µg/mL, the MIC (S. aureus [2]) was > 140 µg/mL and the inhibition at 250 µM (S. marcescens [4]) was 61%.
For `COC(=O)C(CCCN)NC(=O)C(CCCCN)NC(=O)C(=O)c1ccccc1NC(=O)c1ccc2ccccc2c1.Cl.Cl` (stereo not drawn) [Compound 61, Methyl2-(2-(2-(2-(2-naphthamido)phenyl)-2-oxoacetamido)-6-aminohexanamido)-5-aminopentanoate dihydrochloride], the MIC (E. coli [1]) was 39 µg/mL, the MIC (S. aureus [2]) was 130 µg/mL and the “disruption of established biofilms of P. aeruginosa” value [7] was 55%. The “disruption of established biofilms of S. aureus” value (S. aureus [6]) was 53%.
With `NCCNC(=O)[C@H](Cc1c[nH]c2ccccc12)NC(=O)c1cc(Br)ccc1NC(=O)c1ccc2ccccc2c1` [Compound 95, (S)—N-(2-((1-((2-Aminoethyl)amino)-3-(1H-indol-3-yl)-1-oxopropan-2-yl)carbamoyl)-4-bromophenyl)-2-naphthamide] the MIC (S. aureus (SA38)) was 3.9 µM (≈ 2.33 µg/mL) and the MIC (E. coli (K12)) was > 125 µM.
For `NCCNC(=O)[C@H](Cc1c[nH]c2ccccc12)NC(=O)c1cc(F)ccc1NC(=O)c1ccc2ccccc2c1` [Compound 96, (S)—N-(2-((1-((2-Aminoethyl)amino)-3-(1H-indol-3-yl)-1-oxopropan-2-yl)carbamoyl)-4-fluorophenyl)-2-naphthamide], the MIC (S. aureus (SA38)) was 7.8 µM (≈ 4.19 µg/mL) and the MIC (E. coli (K12)) was 15.6 µM (≈ 8.39 µg/mL).
`N=C(N)NCCNC(=O)[C@H](Cc1c[nH]c2ccccc12)NC(=O)c1cc(Br)ccc1NC(=O)c1ccc2ccccc2c1` [Compound 106, (S)—N-(4-Bromo-2-((1-((2-guanidinoethyl)amino)-3-(1H-indol-3-yl)-1-oxopropan-2-yl)carbamoyl)phenyl)-2-naphthamide] gave an MIC (S. aureus (SA38)) of 3.9 µM (≈ 2.5 µg/mL) and an MIC (E. coli (K12)) of 15.6 µM (≈ 9.99 µg/mL).
`N=C(N)NCCNC(=O)[C@H](Cc1c[nH]c2ccccc12)NC(=O)c1cc(F)ccc1NC(=O)c1ccc2ccccc2c1` [Compound 107, (S)—N-(4-Fluoro-2-((1-((2-guanidinoethyl)amino)-3-(1H-indol-3-yl)-1-oxopropan-2-yl)carbamoyl)phenyl)-2-naphthamide] showed an MIC (S. aureus (SA38)) of 1.8 µM (≈ 1.04 µg/mL) and an MIC (E. coli (K12)) of 125 µM (≈ 72.5 µg/mL).
`COc1ccc(NC(=O)c2ccc3ccccc3c2)c(C(=O)N[C@@H](Cc2c[nH]c3ccccc23)C(=O)NCCNC(=N)N)c1` [Compound 109, (S)—N-(2-((1-((2-Guanidinoethyl)amino)-3-(1H-indol-3-yl)-1-oxopropan-2-yl)carbamoyl)-4-methoxyphenyl)-2-naphthamide] was tested, and the MIC (S. aureus (SA38)) was 7.8 µM (≈ 4.62 µg/mL) and the MIC (E. coli (K12)) was 62.5 µM (≈ 37 µg/mL).
Work on `CN(C)CCNC(=O)[C@H](Cc1c[nH]c2ccccc12)NC(=O)c1cc(Br)ccc1NC(=O)c1ccc2ccccc2c1` [Compound 117, (S)-2-(2-(2-(2-Naphthamido)-5-bromobenzamido)-3-(1H-indol-3-yl)propanamido)-N,N-dimethylethan-1-aminium chloride] yielded an MIC (S. aureus (SA38)) of 7.8 µM and an MIC (E. coli (K12)) of 125 µM.
With Gentamicin [reference compound] the “Minimum inhibitory concentration (MIC) E. coli” value (E. coli [1]) was 2.5 µg/mL and the “Minimum inhibitory concentration (MIC) S. aureus” value (S. aureus [2]) was <0.6 µg/mL.
